This is an account of results in ChEMBL document CHEMBL5584295, “Formononetin Derivative for Osteoporosis by Simultaneous Regulating Osteoblast and Osteoclast” (J Nat Prod, 2024).

The test system of series [1] is RAW264.7. Briefly: Inhibition of RANKL-induced osteoclastogenesis in mouse RAW264 cells assessed as number of osteoclast at 5 uM incubated for 5 days by TRAP staining based microscopic analysis (reference value: 95). It counts as functional. The note with it: time 5 day.
In series [2] the test system is RAW264.7. Put plainly: Inhibition of RANKL-induced osteoclastogenesis in mouse RAW264 cells assessed as number of osteoclast at 1 uM incubated for 5 days by TRAP staining based microscopic analysis (reference value: 95). It counts as functional. The following applies: time 5 day.
Series [3] has as its system RAW264.7. Briefly: Inhibition of RANK/RANKL/OPG signaling pathway in mouse RAW264.7 cells assessed as decrease in RANKL-stimulated RANK protein expression level at 1 uM after 5 days by Western blot analysis. The format is cell-based. The following applies: time 5.0 day.
In series [4] the test system is Mus musculus. Briefly: Anti-osteoporosis activity in OVX-induced osteoporosis ICR mouse model assessed as decrease in trabecular spacing by in femur at 10 mg/kg, ip and measured after 12 weeks by micro-CT analysis relative to control. Also on record: scale not given: the % may be the effect or the level left. The format is functional.
The test system of series [5] is MSC. Briefly: Activation of BMP/Smad signaling pathway in Wistar rat bone marrow-derived MSC assessed as increase in alp mRNA expression at 0.4 uM incubated for 14 days by RT-qPCR analysis. The format is cell-based. The following applies: filed as activator, time 14.0 day.
The test system of series [6] is RAW264.7. Put plainly: Cytotoxicity against mouse RAW264.7 cells assessed as reduction in cell viability at 1 to 10 uM after 72 hrs by MTS assay. It counts as toxicity, cell-based. The following applies: raw264.7, 72 h, dose 1-10 µM.
For series [7], the system named is Mus musculus. Briefly: Anti-osteoporosis activity in OVX-induced osteoporosis ICR mouse model assessed as increase in trabecular number in femur at 20 mg/kg, IG and measured after 12 weeks by micro-CT analysis. The format is functional, organism-based.
Series [8] deals with RAW264.7. Briefly: Inhibition of RANKL-induced osteoclastogenesis in mouse RAW264 cells assessed as number of osteoclast at 10 uM incubated for 5 days by TRAP staining based microscopic analysis (reference value: 95). It counts as functional. The following applies: time 5 day.
The test system of series [9] is Mus musculus. Put plainly: Anti-osteoporosis activity in OVX-induced osteoporosis ICR mouse model assessed as increase in BV/TV by measuring fold change in femur at 10 mg/kg, ip and measured after 12 weeks by micro-CT analysis. It counts as functional.
The subject of series [10] is MSC. Briefly: Activation of BMP/Smad signaling pathway in Wistar rat bone marrow-derived MSC assessed as increase in smad4 mRNA expression at 0.4 uM incubated for 14 days by RT-qPCR analysis. The format is cell-based. The note with it: filed as activator, time 14.0 day.
Series [11] in a line: Cytotoxicity against Wistar rat bone marrow-derived MSC assessed as reduction in cell viability at 0.4 to 10 uM after 72 hrs by MTS assay. The format is toxicity, cell-based. The note with it: dose 0.4-10 µM.
The subject of series [12] is Mus musculus. Put plainly: Anti-osteoporosis activity in OVX-induced osteoporosis ICR mouse model assessed as increase in bone mineral density by measuring fold change in femur at 10 mg/kg, ip and measured after 12 weeks by micro-CT analysis. It counts as functional.
In series [13] the test system is Mus musculus. Briefly: Anti-osteoporosis activity in OVX-induced osteoporosis ICR mouse model assessed as increase in BV/TV by measuring fold change in femur at 20 mg/kg, IG and measured after 12 weeks by micro-CT analysis. The format is functional.
Series [14] concerns Mus musculus. Put plainly: Anti-osteoporosis activity in OVX-induced osteoporosis ICR mouse model assessed as decrease in trabecular spacing by in femur at 20 mg/kg, IG and measured after 12 weeks by micro-CT analysis relative to control. It counts as functional.
In series [15] the test system is MSC. Put plainly: Activation of BMP/Smad signaling pathway in Wistar rat bone marrow-derived MSC assessed as increase in smad1 mRNA expression at 0.4 uM incubated for 14 days by RT-qPCR analysis. It counts as cell-based. The following applies: filed as activator, time 14.0 day.
For series [16], the system named is MSC. Briefly: Activation of BMP/Smad signaling pathway in Wistar rat bone marrow-derived MSC assessed as increase in smad9 mRNA expression at 0.4 uM incubated for 14 days by RT-qPCR analysis. The following applies: filed as activator, time 14.0 day. The format is cell-based.
For series [17], the system named is Mus musculus. Put plainly: Anti-osteoporosis activity in OVX-induced osteoporosis ICR mouse model assessed as increase in trabecular number by measuring fold change in femur at 10 mg/kg, ip and measured after 12 weeks by micro-CT analysis. The format is functional.
Series [18] concerns RAW264.7. Briefly: Inhibition of RANK/RANKL/OPG signaling pathway in RANKL-stimulated mouse RAW264.7 cells assessed as increase in OPG protein expression level at 1 uM after 5 days by Western blot analysis. It counts as cell-based. The note with it: time 5.0 day.
The test system of series [19] is MSC. Briefly: Activation of BMP/Smad signaling pathway in Wistar rat bone marrow-derived MSC assessed as increase in bmp2 mRNA expression at 0.4 uM incubated for 14 days by RT-qPCR analysis. The format is cell-based. The following applies: filed as activator, time 14.0 day.
The subject of series [20] is Mus musculus. Briefly: Anti-osteoporosis activity in OVX-induced osteoporosis ICR mouse model assessed as increase in trabecular thickness by measuring fold change in femur at 10 mg/kg, ip and measured after 12 weeks by micro-CT analysis. The format is functional.
Series [21] deals with MSC. Briefly: Activation of BMP/Smad signaling pathway in Wistar rat bone marrow-derived MSC assessed as increase in bmp5 mRNA expression at 0.4 uM incubated for 14 days by RT-qPCR analysis. The format is cell-based. The note with it: filed as activator, time 14.0 day.
The subject of series [22] is RAW264.7. Put plainly: Inhibition of RANK/RANKL/OPG signaling pathway in RANKL-stimulated mouse RAW264.7 cells assessed as increase in c-Jun protein expression level at 1 uM after 5 days by Western blot analysis. It counts as cell-based. The note with it: time 5.0 day.
Series [23] has as its system RAW264.7. Briefly: Inhibition of RANK/RANKL/OPG signaling pathway in mouse RAW264.7 cells assessed as decrease in RANKL-stimulated NFATc-1 protein expression level at 1 uM after 5 days by Western blot analysis. The format is cell-based. The note with it: time 5.0 day.
For series [24], the system named is MSC. Briefly: Induction of osteogenesis in Wistar rat bone marrow-derived MSC assessed as increase in ALP at 0.4 uM measured after 1 week with fresh culture medium replacement for every 3 days by ALP staining based analysis. The format is functional, cell-based. The note with it: time 1.0 weeks.
Series [25] concerns MSC. Put plainly: Induction of osteogenesis in Wistar rat bone marrow-derived MSC assessed as increase in increase in calcium nodes at 0.4 uM measured after 14 days with fresh culture medium replacement for every 3 days by Alizarin red staining based analysis. It counts as functional, cell-based. The following applies: time 14.0 day.
Series [26] is described as follows: Induction of osteogenesis in Wistar rat bone marrow-derived MSC assessed as increase in bone formation by measuring fold change at 0.4 uM measured after 14 days with fresh culture medium replacement for every 3 days by Alizarin red staining based analysis. It counts as functional. The following applies: time 14 day.
Series [27] has as its system MSC. Put plainly: Induction of osteogenesis in Wistar rat bone marrow-derived MSC assessed as increase in calcium nodes at 1 uM measured after 14 days with fresh culture medium replacement for every 3 days by Alizarin red staining based analysis. It counts as functional, cell-based. The note with it: time 14.0 day.
The test system of series [28] is MSC. Put plainly: Induction of osteogenesis in Wistar rat bone marrow-derived MSC assessed as increase in ALP at 1 uM measured after 1 week with fresh culture medium replacement for every 3 days by ALP staining based analysis. It counts as functional, cell-based. The note with it: time 1.0 weeks.
Series [29] can be described thus: Induction of osteogenesis in Wistar rat bone marrow-derived MSC assessed as increase in bone formation by measuring fold change at 1 uM measured after 14 days with fresh culture medium replacement for every 3 days by Alizarin red staining based analysis. The format is functional. The following applies: time 14 day.
The nature of series [30]: Cytotoxicity against Wistar rat bone marrow-derived MSC assessed as reduction in cell viability at 0.4 to 2 uM after 72 hrs by MTS assay. The note with it: dose 0.4-2 µM. It counts as toxicity, cell-based.
A short description of series [31]: Cytotoxicity against Wistar rat bone marrow-derived MSC assessed as inhibition of cell viability at 10 uM after 72 hrs by MTS assay relative to control. It counts as toxicity, cell-based. The note with it: bone marrow-derived mesenchymal stem cells (MSC), read-out: INH.
Series [32] relates to Mus musculus. Briefly: Anti-osteoporosis activity in OVX-induced osteoporosis ICR mouse model assessed as increase in bone mineral density by measuring fold change in femur at 20 mg/kg, IG and measured after 12 weeks by micro-CT analysis. It counts as functional.
Series [33] relates to Mus musculus. Briefly: Anti-osteoporosis activity in OVX-induced osteoporosis ICR mouse model assessed as increase in trabecular thickness by measuring fold change in femur at 20 mg/kg, IG and measured after 12 weeks by micro-CT analysis. It counts as functional.
The test system of series [34] is RAW264.7. Put plainly: Inhibition of RANKL-induced osteoclastogenesis in mouse RAW264 cells assessed as decrease in number of osteoclast at 1 to 10 uM incubated for 5 days by TRAP staining based microscopic analysis. The format is functional, cell-based. The note with it: dose 1-10 µM, time 5.0 day.
Series [35] has as its system Mus musculus. Briefly: Anti-osteoporosis activity in OVX-induced osteoporosis ICR mouse model assessed as increase in trabecular number by measuring fold change in femur at 20 mg/kg, IG and measured after 12 weeks by micro-CT analysis. It counts as functional.

The source made the active and inactive calls. The rule behind the calls is not given here.

On to `COc1ccc(-c2coc3c4c(ccc3c2=O)OCN(Cc2ccoc2)C4)cc1`, for which the Activity in series [1] is 24; in [2] it was 30; in series [4], 37%; in series [6], “Non-Toxic”; in series [8] it was 29; in [11], “Non-Toxic”. Besides, the inhibition result in series [3], in series [18], in series [22] and in series [23] was “Active” in each case. In addition, the outcome in series [5], in series [10], in series [15], in [16], in series [19] and in series [21] was Active. Moreover, the outcome in [24] and in [25] was Active. In addition, the outcome in [7] and in series [14] was inactive. Also, the “fold change (FC)” value in series [9] is given as 9.25; in series [12] it was 15.2; in series [13], 2.13; in series [17], 2.17; in series [20], 1.9; in [26], 2.3.
Regarding `COc1ccc(-c2coc3cc(O)ccc3c2=O)cc1` [FORMONONETIN], the Activity in [2] worked out at 66. The result in series [27] and in series [28] was Active. For the same compound, the “fold change (FC)” value in [29] is listed as 1.4.
As to `CCCCCCN1COc2ccc3c(=O)c(-c4ccc(OC)cc4)coc3c2C1`, the Activity entry in [11] is “Non-Toxic”. Also, the “fold change (FC)” value in series [26] is on record as 1.2.
On to `COc1ccc(-c2coc3c4c(ccc3c2=O)OCN(Cc2ccccc2)C4)cc1`, for which the Activity entry in series [11] is given as “Non-Toxic”. Moreover, the “fold change (FC)” value in [26] was found to be 1.
`COc1ccc(-c2coc3c(C=O)c(O)ccc3c2=O)cc1`: the Activity entry in [30] is given as “Non-Toxic”. Besides, the cytotoxicity at 72 h, 10 µM in series [31] was 15.5%. Further, in series [26], the “fold change (FC)” value turned out to be 1.3.
As to `CC(C)Oc1ccc2c(=O)c(-c3ccccc3)coc2c1` [IPRIFLAVONE], the “fold change (FC)” value in series [32] was found to be 3.3; in [33], 1.17; in series [12], 1.9; in series [13], 2.3. Also, the outcome in series [4], in [7] and in [14] was inactive.
In the case of `CCCCCCCCNCc1c(O)ccc2c(=O)c(-c3ccc(OC)cc3)coc12`, the Activity entry in [11] is recorded as “Non-Toxic”. Also, the “fold change (FC)” value in series [26] was 1.1.
The like results for `COc1ccc(-c2coc3c4c(ccc3c2=O)OCN(C2CCCCC2)C4)cc1` were, in that order, “Non-Toxic” and 0.8.
On to `CCCCN1COc2ccc3c(=O)c(-c4ccc(OC)cc4)coc3c2C1`, for which the “fold change (FC)” value in [32] is listed as 3.3; in [9] it was 6.47; in series [12] it was 10.3; in series [35], 1.42; in series [13], 2.2; in series [17] it was 1.94. The “fold change (FC)” value in series [20] is 1.51; in [26] it was 1.9. Besides, the inhibition entry in series [3], in [34], in [18], in series [22] and in series [23] was “inactive” throughout. The Activity in series [4] is 43%; in [6], “Non-Toxic”; in [11] it was “Non-Toxic”; in [14], 63%. In addition, the result in series [24] and in series [25] was Active.
